Source: ChEMBL document CHEMBL1125705, “Imidazo[4,5-b]quinoxaline cyanines as neurokinin antagonists” (J Med Chem, 1991)

biological target: Substance-P receptor (Rattus norvegicus, UniProt P14600); test: Binding affinity for tachykinin receptor 1 from rat forebrain tissue, [125I]-BH-SP as radioligand
Sequence (P14600 whole entry): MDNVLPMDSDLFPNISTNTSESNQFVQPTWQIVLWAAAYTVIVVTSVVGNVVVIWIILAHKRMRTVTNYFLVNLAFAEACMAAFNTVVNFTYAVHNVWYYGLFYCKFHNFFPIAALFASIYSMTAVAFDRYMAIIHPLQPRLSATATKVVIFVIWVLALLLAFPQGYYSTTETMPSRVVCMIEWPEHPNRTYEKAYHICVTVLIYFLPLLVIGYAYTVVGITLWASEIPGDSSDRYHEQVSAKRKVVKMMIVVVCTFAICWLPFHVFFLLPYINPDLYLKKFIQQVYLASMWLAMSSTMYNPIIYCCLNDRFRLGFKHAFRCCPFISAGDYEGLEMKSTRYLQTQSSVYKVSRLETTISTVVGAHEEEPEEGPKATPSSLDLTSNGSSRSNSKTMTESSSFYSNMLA

Compared with CCn1c(/C=C/C=C2/N(C)c3ccccc3C2(C)C)[n+](CCCN(C)C)c2nc3ccccc3nc21, CCn1c(/C=C/C=C2/N(C)c3ccccc3C2(C)C)[n+](CCCO)c2nc3ccccc3nc21 is 3.7-fold lower in IC50: 1300 nM for the first, 350 nM for the second.

Going from CCn1c(/C=C/C=C2/N(CC(=O)N(C)C)c3ccccc3C2(C)C)[n+](CC)c2nc3ccccc3nc21 to CCN1/C(=C/C=C/c2n(CC)c3nc4ccccc4nc3[n+]2CC)C(C)(C)c2ccccc21, the IC50 falls from 2600 nM to 390 nM (6.7-fold). The second is the more potent here.

Compared with CCn1c(/C=C/C=C2/N(C)c3ccccc3C2(C)C)[n+](CCCC(=O)O)c2nc3ccccc3nc21, CCOC(=O)CCC[n+]1c(/C=C/C=C2/N(C)c3ccccc3C2(C)C)n(CC)c2nc3ccccc3nc21 is 1.6-fold lower in IC50: 1400 nM for the first, 850 nM for the second. The second is the more potent here.

Compared with CCn1c(/C=C/C=C2/N(C)c3ccccc3C2(C)C)[n+](CC(N)=O)c2nc3ccccc3nc21, CCn1c(/C=C/C=C2/N(C)c3ccccc3C2(C)C)[n+](CCCOC(C)=O)c2nc3ccccc3nc21 is 4.9-fold lower in IC50: 2000 nM for the first, 410 nM for the second. The second is the more potent here.

CCn1c(/C=C/C=C2/N(C)c3ccccc3C2(C)C)[n+](CC)c2nc3cc(Cl)c(Cl)cc3nc21 and CCn1c(/C=C/C=C2/N(CCO)c3ccccc3C2(C)C)[n+](CC)c2nc3ccccc3nc21 are within 1.5-fold of each other in IC50: 1100 nM for the first, 1000 nM for the second.

First: CCn1c(/C=C/C=C/N2CCCC2)[n+](CC)c2nc3ccccc3nc21
Second: CCn1c(/C=C/C=C2\Sc3ccccc3N2C)[n+](CC)c2nc3ccccc3nc21
The IC50 of the first is higher: greater than 10000 nM for the first, 700 nM for the second.

CCn1c(/C=C/C=C2\C3C=CCc4cccc(c43)N2C)[n+](CC)c2nc3ccccc3nc21 (stereo not given) gave an IC50 of 850 nM.

biological target: T1, Neuromedin-K receptor (Rattus norvegicus, UniProt P16177); test: Binding affinity of compound was evaluated towards tachykinin receptor 3 by using radioligand [[…]]eledoisin in rat cortex
T1 sequence (P16177 whole entry): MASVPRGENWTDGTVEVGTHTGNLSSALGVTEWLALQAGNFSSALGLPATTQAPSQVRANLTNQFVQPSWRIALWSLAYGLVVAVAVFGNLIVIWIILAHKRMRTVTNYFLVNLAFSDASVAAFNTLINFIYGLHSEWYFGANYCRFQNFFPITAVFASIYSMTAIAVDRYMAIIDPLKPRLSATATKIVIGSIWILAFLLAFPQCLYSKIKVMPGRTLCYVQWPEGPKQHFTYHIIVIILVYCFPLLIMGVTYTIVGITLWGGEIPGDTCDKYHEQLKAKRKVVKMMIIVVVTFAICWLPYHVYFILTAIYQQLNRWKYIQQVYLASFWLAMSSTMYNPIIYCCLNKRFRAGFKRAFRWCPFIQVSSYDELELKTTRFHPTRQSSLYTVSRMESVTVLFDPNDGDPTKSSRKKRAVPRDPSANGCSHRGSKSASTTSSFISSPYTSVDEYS

In the case of CCn1c(/C=C/C=C2\N(C)c3ccccc3C2(C)C)[n+](CC)c2nc3ccccc3nc21, the IC50 is reported as 3300 nM.

biological target: T2, Substance-K receptor (Rattus norvegicus, UniProt P16610); test: Binding affinity of compound was evaluated towards tachykinin receptor 2 by using radioligand ([125I]-NKA in rat duodenum
T2 sequence (P16610 whole entry): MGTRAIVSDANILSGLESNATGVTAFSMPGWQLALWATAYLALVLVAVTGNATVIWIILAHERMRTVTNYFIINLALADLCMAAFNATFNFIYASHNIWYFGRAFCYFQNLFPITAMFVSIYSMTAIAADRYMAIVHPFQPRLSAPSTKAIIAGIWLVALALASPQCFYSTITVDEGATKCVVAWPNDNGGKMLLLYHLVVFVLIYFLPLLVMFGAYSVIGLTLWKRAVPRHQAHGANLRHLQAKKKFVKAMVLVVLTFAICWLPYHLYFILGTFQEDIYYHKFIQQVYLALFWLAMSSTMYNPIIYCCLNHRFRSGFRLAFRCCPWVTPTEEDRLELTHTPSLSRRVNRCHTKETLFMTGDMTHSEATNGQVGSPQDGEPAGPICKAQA

CCn1c(/C=C/C=C2\N(C)c3ccccc3C2(C)C)[n+](CC)c2nc3ccccc3nc21 showed an IC50 of 1700 nM.
